Experimental data published in patent US20140314780A1, “Compositions Using Antibodies Directed to GPNMB and Uses Thereof” (Celldex Therapeutics, Inc., priority 2008, published 2014).

Tested on: GPNMB
Experiment: Immunoblotting for GPNMB on whole-cell lysates of cancer cell lines after drug exposure
Format: cell-based, human
Source text: Cancer cell lines were of human origin and were obtained from the American Type Culture Collection (Manassas, Va.) and from the National Cancer Institute (Bethesda, Md.) and cultured in RPMI-1640 supplemented with 10% FBS (growth media). Sources of reagents were as follows: RAFKi (553013), MEKi (U0126), MEKi (PD98059), MEKi (444939), ERKi (FR180204), p38 MAPKi (SB202190), p38 MAPKi (SB203580), aurora kinase inhibitor (189404), JNK inhibitor (420119), MMPi (GM6001) were from EMD Chemicals (San Diego, Calif.). ERKi (A6355), RAFKi: (GW5074), ammonium chloride (NH4Cl), chloroquine, monensin, cyclohexamide and emetine were from Sigma (Saint Louis, Mo.). HSP90i (geldanamycin) was from AG Scientific (San Diego, Calif.) and imatinib (Gleevec) was purchased from a pharmacy.
Cells were seeded in 6-well tissue culture dishes at a subconfluent density and allowed to attach overnight. For harvesting cell lysates, media was removed, cells were briefly washed with serum-free media and then 1× Tris-glycine SDS sample buffer (Invitrogen, Carlsbad, Calif.) supplemented with 10 mM dithiothreitol (Sigma) was added directly to the wells. Cell lysates were then collected and boiled for 10 minutes. For preparing conditioned media, drug treatments were performed in a minimum volume of growth media (1.5 mL/well). Following 48 hours of incubation, conditioned media was collected, briefly microfuged, mixed with an equal volume of 2× Tris-glycine SDS sample buffer (Invitrogen, Carlsbad, Calif.) supplemented with 20 mM dithiothreitol (Sigma) and boiled for 10 minutes. For cell lysates, samples were quantified and an equal quantity of protein/lane was resolved on 4-20% gradient polyacrylamide gels (Invitrogen) and then transferred to nitrocellulose filters (Invitrogen). The volume of conditioned media loaded/lane was adjusted based on the protein concentration determined in the respective cell lysates. Immunoblotting was performed using standard procedures and the following primary antibodies: MARTI (sc-20032), TYRP2 (sc-25544), TYRP1 (sc-25543), PMEL17 (sc-15010), MAGEA1 (sc-20033), MCSP (sc-20162), MTf (sc-26651), MCAM (sc-18942), pp-ERK (sc-7976) and ERK (sc-94) (preceding antibodies were purchased from Santa Cruz Biotechnologies, Santa Cruz, Calif.), GPNMB (AF2550; R & D Systems, Minneapolis Minn.), actin (A5060; Sigma). Following incubation with the appropriate horseradish peroxidase-conjugated secondary antibodies, enhanced chemiluminescence (GE Healthcare, Chalfont St. Giles, United Kingdom) was used for detection.

## N#CC(=C(/N)Sc1ccccc1N)/C(C#N)=C(\N)Sc1ccccc1N [Mab U0126]
  GPNMB induction (immunoblotting), kinetics and drug concentration: increased with exposure time
  GPNMB induction compared to other melanoma-associated proteins: most consistently induced
